# Read-outs that look alike come from different tables or passages of the source.
# Key:
# morningglory = assay: Test C pre-/postemergence herbicide test; type: in vivo, Ipomoea coccinea
# In short: (§1)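 Two application timings ran in parallel with identically formulated test chemicals (non-phytotoxic solvent, surfactant included): spray on seeded loam–sand soil, and spray on emerged plants 2 to 18 cm high. Evaluation at 13 to 15 days compared each species with controls, rated from 0 up to 100.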
# wheat (winter wheat) = assay: Test C pre-/postemergence herbicide test; type: in vivo, Triticum aestivum
# In short: as §1
# oat, wild = assay: Test C pre-/postemergence herbicide test; type: in vivo, Avena fatua; settings: Postemergence
# In short: as §1
# ragweed = assay: Test C pre-/postemergence herbicide test; type: in vivo, Ambrosia elatior
# In short: as §1
# wheat = assay: Test A pre-/postemergence herbicide test; type: in vivo, Triticum aestivum
# In short: (§2)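 Directed soil spray to seeded pots (preemergence) or spray onto one- to two-leaf seedlings 2–10 cm tall (postemergence); loam/sand substrate throughout. Evaluated visually after about 10 days against untreated plants, 0 = no effect, 100 = complete control.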
# waterhemp = assay: Test C pre-/postemergence herbicide test; type: in vivo, Amaranthus rudis
# In short: as §1
# oilseed rape = assay: Test C pre-/postemergence herbicide test; type: in vivo, Brassica napus
# In short: as §1
# pigweed = assay: Test A pre-/postemergence herbicide test; type: in vivo, Amaranthus retroflexus
# In short: as §2
# corn = assay: Test A pre-/postemergence herbicide test; type: in vivo, Zea mays
# In short: as §2
# [1] = Postemergence, 31 g ai/ha, scale 0 (no effect) to 100 (complete control)
# [2] = Postemergence, 62 g ai/ha, scale 0 to 100 (0 no effect, 100 complete control)
# [3] = Postemergence, 125 g ai/ha, scale 0 to 100 (0 no effect, 100 complete control)
# [4] = Postemergence, 250 g ai/ha, scale 0 to 100 (0 no effect, 100 complete control)
# [5] = Preemergence, 31 g ai/ha, scale 0 to 100, 0 is no effect and 100 is complete control
# [6] = Preemergence, 62 g ai/ha, scale 0 to 100
# [7] = Preemergence, 125 g ai/ha, scale 0 to 100 (0 no effect, 100 complete control)
# [8] = 125 g ai/ha, scale 0 to 100 (0 no effect, 100 complete control)
# [9] = 250 g ai/ha, scale 0 to 100 (0 no effect, 100 complete control)
# [10] = Postemergence, 125 g ai/ha, 0 to 100 scale, 0 no effect, 100 complete control
# [11] = Postemergence, 500 g ai/ha, 0 to 100 scale (0 no effect, 100 complete control)
# [12] = Preemergence, 125 g ai/ha, visual rating on 0 to 100 scale (0 no effect, 100 complete control)
# [13] = preemergence, 500 g ai/ha, 0 to 100 scale
# [14] = Postemergence, 31 g ai/ha, scale 0 to 100 (0 no effect, 100 complete control)
# [15] = Postemergence, 62 g ai/ha, scale 0 (no effect) to 100 (complete control)
# [16] = Preemergence, 62 g ai/ha, scale 0 to 100 (0 no effect, 100 complete control)
smiles,measurement,setting,value
O=C1NCC(c2ccc(F)c(F)c2)C1C(=O)Nc1cccc(F)c1F (racemic) [Compound 101],"Plant response rating, Morningglory",morningglory; [1],15
same,"Plant response rating, Morningglory",morningglory; [2],15
same,"Plant response rating, Morningglory",morningglory; [3],25
same,"Plant response rating, Morningglory",morningglory; [4],55
same,Morningglory plant response rating,morningglory; [5],0
same,"Plant response rating, Morningglory",morningglory; [6],0
same,"Plant response rating, Morningglory",morningglory; [7],30
same,"Plant response rating (scale of 0 to 100), Morningglory","morningglory; Preemergence, 250 g ai/ha",25
same,"Plant response rating, Wheat",wheat (winter wheat); [1],0
same,"Plant response rating, Wheat",wheat (winter wheat); [2],0
same,"Plant response rating, Wheat",wheat (winter wheat); [3],0
same,"Plant response rating, Wheat",wheat (winter wheat); [4],0
same,Wheat plant response rating,wheat (winter wheat); [5],0
same,"Plant response rating, Wheat",wheat (winter wheat); [6],20
same,"Plant response rating, Wheat",wheat (winter wheat); [7],50
same,"Plant response rating (scale of 0 to 100), Wheat","wheat (winter wheat); Preemergence, 250 g ai/ha",55
same,"Plant response rating, Oat, Wild","oat, wild; 31 g ai/ha, scale 0 (no effect) to 100 (complete control)",0
same,"Plant response rating, Oat, Wild","oat, wild; 62 g ai/ha, scale 0 to 100 (0 no effect, 100 complete control)",0
same,"Plant response rating, Oat, Wild","oat, wild; [8]",0
same,"Plant response rating, Oat, Wild","oat, wild; [9]",0
same,"Plant response rating, Ragweed",ragweed; [1],0
same,"Plant response rating, Ragweed",ragweed; [2],0
same,"Plant response rating, Ragweed",ragweed; [3],5
same,"Plant response rating, Ragweed",ragweed; [4],45
same,Ragweed plant response rating,ragweed; [5],15
same,"Plant response rating, Ragweed",ragweed; [6],0
same,"Plant response rating, Ragweed",ragweed; [7],5
same,"Plant response rating (scale of 0 to 100), Ragweed","ragweed; Preemergence, 250 g ai/ha",5
same,"Plant response rating, Wheat",wheat; [10],50
same,"Plant response rating, Wheat",wheat; [11],60
same,Wheat plant response rating,wheat; [12],60
same,"Plant response rating, Wheat",wheat; [13],70
same,"Plant response rating, Waterhemp",waterhemp; [1],0
same,"Plant response rating, Waterhemp",waterhemp; [2],5
same,"Plant response rating, Waterhemp",waterhemp; [3],20
same,"Plant response rating, Waterhemp",waterhemp; [4],35
same,Waterhemp plant response rating,waterhemp; [5],50
same,"Plant response rating, Waterhemp",waterhemp; [6],70
same,"Plant response rating, Waterhemp",waterhemp; [7],50
same,"Plant response rating (scale of 0 to 100), Waterhemp","waterhemp; Preemergence, 250 g ai/ha",85
same,"Plant response rating, Oilseed Rape",oilseed rape; [1],5
same,"Plant response rating, Oilseed Rape",oilseed rape; [2],10
same,"Plant response rating, Oilseed Rape",oilseed rape; [3],50
same,"Plant response rating, Oilseed Rape",oilseed rape; [4],35
same,Oilseed Rape plant response rating,oilseed rape; [5],0
same,"Plant response rating, Oilseed Rape",oilseed rape; [6],35
same,"Plant response rating, Oilseed Rape",oilseed rape; [7],80
same,"Plant response rating (scale of 0 to 100), Oilseed Rape","oilseed rape; Preemergence, 250 g ai/ha",80
same,"Plant response rating, Pigweed",pigweed; [10],20
same,"Plant response rating, Pigweed",pigweed; [11],70
same,Pigweed plant response rating,pigweed; [12],10
same,"Plant response rating, Pigweed",pigweed; [13],70
same,"Plant response rating, Corn",corn; [10],0
same,"Plant response rating, Corn",corn; [11],50
same,Corn plant response rating,corn; [12],0
same,"Plant response rating, Corn",corn; [13],0
"O=C1NC[C@H](c2cccc(C(F)(F)F)c2)[C@H]1C(=O)Nc1ccccc1F [Compound 204, (3R,4S)—N-(2-fluorophenyl)-2-oxo-4-[3-(trifluoromethyl)phenyl]-3-pyrrolidinecarboxamide]","Plant response rating, Morningglory",morningglory; [14],5
same,"Plant response rating, Morningglory",morningglory; [15],5
same,"Plant response rating, Morningglory",morningglory; [3],15
same,"Plant response rating, Morningglory",morningglory; [4],35
same,Morningglory plant response rating,morningglory; [5],0
same,Morningglory plant response rating,morningglory; [16],0
same,"Plant response rating, Morningglory",morningglory; [7],20
same,"Plant response rating (scale of 0 to 100), Morningglory","morningglory; Preemergence, 250 g ai/ha",40
same,"Plant response rating, Wheat",wheat (winter wheat); [14],0
same,"Plant response rating, Wheat",wheat (winter wheat); [15],0
same,"Plant response rating, Wheat",wheat (winter wheat); [3],0
same,"Plant response rating, Wheat",wheat (winter wheat); [4],0
same,Wheat plant response rating,wheat (winter wheat); [5],0
same,Wheat plant response rating,wheat (winter wheat); [16],70
same,"Plant response rating, Wheat",wheat (winter wheat); [7],80
same,"Plant response rating (scale of 0 to 100), Wheat","wheat (winter wheat); Preemergence, 250 g ai/ha",90
same,"Plant response rating, Oat, Wild","oat, wild; 31 g ai/ha, scale 0 to 100 (0 no effect, 100 complete control)",0
same,"Plant response rating, Oat, Wild","oat, wild; 62 g ai/ha, scale 0 (no effect) to 100 (complete control)",0
same,"Plant response rating, Oat, Wild","oat, wild; [8]",0
same,"Plant response rating, Oat, Wild","oat, wild; [9]",5
same,"Plant response rating, Ragweed",ragweed; [14],0
same,"Plant response rating, Ragweed",ragweed; [15],0
same,"Plant response rating, Ragweed",ragweed; [3],0
same,"Plant response rating, Ragweed",ragweed; [4],0
same,Ragweed plant response rating,ragweed; [5],30
same,Ragweed plant response rating,ragweed; [16],30
same,"Plant response rating, Ragweed",ragweed; [7],100
same,"Plant response rating (scale of 0 to 100), Ragweed","ragweed; Preemergence, 250 g ai/ha",65
same,"Wheat plant response rating (0 to 100 scale, 0 is no effect, 100 is complete control)","wheat; Postemergence, 500 g ai/ha",80
same,plant injury at 125 g/ha,"wheat; Triticum aestivum, post-emergence, 240 h, Postemergence, 125 g ai/ha, 0 to 100 scale, 0 is no effect, 100 is complete control, read-out: Plant response rating, Wheat",60%
same,"Plant response rating, Waterhemp",waterhemp; [14],0
same,"Plant response rating, Waterhemp",waterhemp; [15],0
same,"Plant response rating, Waterhemp",waterhemp; [3],0
same,"Plant response rating, Waterhemp",waterhemp; [4],5
same,Waterhemp plant response rating,waterhemp; [5],100
same,Waterhemp plant response rating,waterhemp; [16],75
same,"Plant response rating, Waterhemp",waterhemp; [7],80
same,"Plant response rating (scale of 0 to 100), Waterhemp","waterhemp; Preemergence, 250 g ai/ha",90
same,"Plant response rating, Oilseed Rape",oilseed rape; [14],0
same,"Plant response rating, Oilseed Rape",oilseed rape; [15],0
same,"Plant response rating, Oilseed Rape",oilseed rape; [3],0
same,"Plant response rating, Oilseed Rape",oilseed rape; [4],45
same,Oilseed Rape plant response rating,oilseed rape; [5],0
same,Oilseed Rape plant response rating,oilseed rape; [16],0
same,"Plant response rating, Oilseed Rape",oilseed rape; [7],0
same,"Plant response rating (scale of 0 to 100), Oilseed Rape","oilseed rape; Preemergence, 250 g ai/ha",60
same,pest or weed control at 125 g/ha,"pigweed; Amaranthus retroflexus, post-emergence, 240 h, Postemergence, 125 g ai/ha, 0 to 100 scale, 0 is no effect, 100 is complete control, read-out: Plant response rating, Pigweed",0%
same,pest or weed control at 125 g/ha,"pigweed; Amaranthus retroflexus, pre-emergence, 240 h, 125 g ai/ha, visual rating, 0 to 100 scale, 0 no effect, 100 complete control, approximately 10 days, read-out: Plant response rating, Pigweed",0%
same,pest or weed control at 500 g/ha,"pigweed; Amaranthus retroflexus, pre-emergence, 240 h, preemergence, 500 g ai/ha, 0 to 100 scale, 0 is no effect and 100 is complete control, read-out: Plant response rating, Pigweed",50%
same,"Pigweed plant response rating (0 to 100 scale, 0 is no effect, 100 is complete control)","pigweed; Postemergence, 500 g ai/ha",20
same,"Corn plant response rating (0 to 100 scale, 0 is no effect, 100 is complete control)","corn; Postemergence, 500 g ai/ha",80
same,"Corn plant response rating (crop injury, 0 = no effect, 100 = complete kill) at 125 g/ha","corn; Zea mays, post-emergence, 240 h, Postemergence, 125 g ai/ha, 0 to 100 scale, 0 is no effect, 100 is complete control",60%
